Measured values reported in patent publication US20260151467A1, “METHOD FOR TREATING CANCER” (THE CHILDREN'S MEDICAL CENTER CORPORATION, priority 2018, published 2026).

Columns and labels:
CCRF-CEM cells = assay: Viable cell counts (trypan blue) of CCRF-CEM cells treated with asparaginase and other agents; assay type: cell-based, human; conditions: for effect on Wnt-induced sensitization to asparaginase: shRNA-transduced cells, rapamycin 1 nM, RAD001 10 nM, AZD2014 10 nM; for sensitization to asparaginase by isoform-selective GSK3 inhibitor: 8 days (FIG. 4a)
Experimental: (§1) Cells (25,000 per well) were seeded in 100 μl of complete growth medium in 96-well plates and incubated with chemotherapeutic agents or vehicle. T-ALL cells were split every 48 hours in a 1:5 ratio. Briefly, 20 μl of cells were mixed with 80 μl fresh culture medium, supplemented with vehicle or chemotherapeutic drugs at the indicated doses. AML cells were split every 72 hours as described above. Cell viability was assessed by counting viable cells based on trypan blue vital dye staining (Invitrogen), according to the manufacturer's instructions. Chemotherapeutic drugs included: PEG-asparaginase (“oncaspar”, Shire, Lexington, MA), dexamethasone (Sigma-Aldrich), vincristine (Selleckchem, Houston, TX), doxorubicin (Sigma-Aldrich), 6-mercaptopurine (Abcam, Cambridge, UK), CHIR99021 (Selleckchem), bortezomib (Selleckchem), rapamycin (Selleckchem), RAD001 (Selleckchem), AZD2014 (Selleckchem), and Wnt3A (R&D systems, Minneapolis, MN). BRD0705 and […] were synthesized as described^15. Caspase 3/7 activity was assessed using the Caspase Glo 3/7 Assay (Promega, Madison, WI) according to the manufacturer's instructions.

HCT-15 cells = assay: Chemotherapy response of colon cancer cell lines (trypan blue counts), HCT-15; assay type: cell-based, human; conditions: 10 days; Rspondin3 75 ng/ml and Wnt3a 100 ng/ml; inhibitors 1 μM
Experimental: (§2) Cells (100,000 per well) were seeded in […] of complete growth medium in 12-well plates and incubated with chemotherapeutic agents or vehicle. Cells were split every 48 hours and cell viability was assessed by counting viable cells based on trypan blue vital dye staining (Invitrogen), according to the manufacturer's instructions. Chemotherapeutic drugs included: asparaginase (pegaspargase, Shire, Lexington, MA), CHIR99021 (Selleckchem), recombinant human Wnt3A protein (R&D systems, Minneapolis, MN) and recombinant human R-Spondin 3 protein (R&D systems, Minneapolis, MN). BRD0705 and BRD3731 were synthesized as described (Wagner et al., 2018). Caspase 3/7 activity was assessed using the Caspase Glo 3/7 Assay (Promega, Madison, WI) according to the manufacturer's instructions.

[1] = test system: T-ALL, acute myeloid leukemia and hypodiploid B-ALL cell lines; assay: Asparaginase sensitization across a panel of treatment-resistant acute leukemia cell lines (trypan blue counts); assay type: cell-based, human; conditions: CHIR99021 1 μM, 8 days
Experimental: as §1

CCD-841 cells = assay: Viable cell counts of normal colonic epithelium cells; assay type: cell-based, human; conditions: CHIR99021 1 μM, 10 days
Experimental: as §2

SW-480 cells = assay: Chemotherapy response of colon cancer cell lines (trypan blue counts), SW-480; assay type: cell-based, human; conditions: 10 days; Rspondin3 75 ng/ml and Wnt3a 100 ng/ml; inhibitors 1 μM
Experimental: as §2

[2] = test system: normal human CD34+ hematopoietic progenitors; assay: Viable cell counts of normal CD34+ hematopoietic progenitors; assay type: cell-based; conditions: CHIR99021 1 μM, day 4
Excerpt: Cell lines and cell culture. 293T cells, T-ALL cell lines, AML cell lines and B-ALL cell lines were obtained from ATCC (Manassas, VA, USA), DSMZ (Braunschweig, Germany), the A. Thomas Look laboratory (Boston, MA, USA) or Alex Kentsis laboratory (New York, NY, USA) and cultured in DMEM, RPMI 1640 or MEM alpha (Thermo Fisher Scientific) with 10% or 20% fetal bovine serum (FBS, Sigma-Aldrich, Saint Louis, MO) or TET system approved FBS (Clontech, Mountain View, CA) and 1% penicillin/streptomycin (Thermo Fisher Scientific) at 37° C., 5% CO2. Human CD34+ progenitor cells from mobilized peripheral blood of healthy donors were obtained from Fred Hutchinson Cancer Research Center (Seattle, WA, USA) (e.g., found on the world wide web at sharedresources.fredhutch.org/products/cd34-cells). […]
Cells (25,000 per well) were seeded in 100 μl of complete growth medium in 96-well plates and incubated with chemotherapeutic agents or vehicle. […] Cell viability was assessed by counting viable cells based on trypan blue vital dye staining (Invitrogen), according to the manufacturer's instructions. […] Caspase 3/7 activity was assessed using the Caspase Glo 3/7 Assay (Promega, Madison, WI) according to the manufacturer's instructions.

[3] = test system: APC-mutant CRC patient-derived xenograft; assay: APC-mutant human CRC patient-derived xenograft in nude mice; assay type: in vivo, mouse; conditions: asparaginase 1000 U/kg×1 dose; BRD0705 every 12 hours×21 days
Experimental: For implantation of APC mutant human CRC PDX, patient tumor material was collected in PBS and kept on wet ice for engraftment within 24 h after resection. Upon arrival, necrotic and supporting tissues were carefully removed using a surgical blade. Approximately 1 mm×1 mm tissue fragments were implanted subcutaneously into the flank region of male nude mice, as described (Bullman et al., 2017). For injection of intestinal organoids (Rspo3; p53; Kras, or Apc; p53; Kras), per mouse one full […] well of organoids was injected subcutaneously.
As soon as tumors reached a volume of approximately 150 mm3, treatment of mice was begun. […] Vehicle was formulated as previously described (Wagner et al., 2018).
After start of treatment, body weight and tumor size were evaluated every other day. Tumor size was assessed by caliper measurements and the approximate volume of the mass was calculated using the formula (l×w×w)×(π/6), where 1 is the major tumor axis and w is the minor tumor axis.

[4] = test system: asparaginase-resistant T-ALL patient-derived xenograft; assay: T-ALL patient-derived xenograft in NRG mice, survival; assay type: in vivo, mouse
Experimental: Mice were exposed to a sub-lethal dose of radiation (4.5 Gy) and subsequently injected with human leukemia cells. All injections were performed by tail vein injection. Blood collections were performed to monitor leukemia onset in mice injected with leukemic cells, which was assessed by staining for human CD45 expression using anti-human CD45-PE-Cy7 (1:400, BD #560915) antibody staining. As soon as leukemia engraftment was confirmed based on ≥5% human leukemia cells in the peripheral blood, treatment of mice was begun. Asparaginase (1,000 U/kg) or PBS were injected by tail vein injection as a single dose on day 1 of drug treatment, and BRD0705 (15 mg/kg) or vehicle were given every 12 hours for 12 days by oral gavage. Vehicle was formulated as previously described.^15 Mice were anesthetized with isoflurane (Patterson Veterinary, Greeley, CO) prior to gavage. After start of treatment, body weight was monitored every third day. To assess bilirubin levels, mandibular blood vein collection was performed, and bilirubin levels were measured in the Boston Children's Hospital clinical laboratory. The primary endpoint of this experiment was survival. Mice were euthanized as soon as they developed weight loss greater than 15% or signs/symptoms of progressing disease. Post-mortem analysis of leukemic burden was performed by extracting bone marrow cells, which were filtered through a […] mesh filter and red blood cells were lysed using the BD Biosciences Red Blood Cell Lysis reagent (BD #555899). Isolated bone marrow cells were stained for assessment of leukemic burden using following antibodies from BD Biosciences: Anti-human CD4-APC-Cy7 (1:100, BD #561839) and anti-human CD8-PerCP-Cy5.5 (1:100, BD #560662).

Apc-deficient organoids = assay: Chemotherapy response in mouse intestinal organoids, Apc-deficient; assay type: cell-based; conditions: asparaginase 100 U/L, BRD0705 1 μM or both, 10 days
Experimental: For assessment of chemotherapy response in mouse intestinal organoids, Apc-deficient and Rspo3 fusion organoids were cultured in basal organoid medium (medium not containing murine Wnt3A, murine Noggin and human R-spondin1 protein). A full 0.95 cm2 well of organoids was split into new wells, aiming to obtain approximately 25 organoids per well. Organoids were split according to previously published protocols (O'Rourke et al., 2016). Matrigel and basal organoid culture medium were supplemented with vehicle or chemotherapeutic agents, and split every 48 hours. After 10 days in culture, total organoid numbers per wells were counted by light microscopy. Microscopy was performed using an 100× objective on an Axio Imager A1 microscope (Zeiss, Oberkochen, Germany), with images captured using a CV-A10 digital camera (Jai, Yokohama, Japan) and Cytovision software (Leica Biosystems, Wetzlar, Germany).
Organoids touching the edge of a well were excluded from counting. Images were taken from a representative of three independent experiments and analyzed with ImageJ Software (Schneider et al., 2012).

## CNC(=O)c1cccc(-c2ccc3c(N4CCOC[C@@H]4C)nc(N4CCOC[C@@H]4C)nc3n2)c1 [AZD2014]
CCRF-CEM cells; 8 days
  effect on Wnt-induced sensitization to asparaginase: had no effect

## Cc1c[nH]c(-c2cnc(NCCNc3ccc(C#N)cn3)nc2-c2ccc(Cl)cc2Cl)n1 [CHIR99021]
CCRF-CEM cells; CHIR99021 1 μM, 8 days, vincristine, 6-mercaptopurine, dexamethasone, doxorubicin
  sensitization to other antileukemic drugs: Nor did it sensitize leukemic cells to other commonly used antileukemic drugs
HCT-15 cells
  sensitization to asparaginase: sufficient to induce asparaginase sensitization
[1]
  asparaginase sensitization: induced significant asparaginase sensitization
CCD-841 cells
  toxicity of GSK3 inhibition combined with asparaginase to normal colonic cells: little toxicity
SW-480 cells
  sensitization to asparaginase: sufficient to induce asparaginase sensitization
[2]
  toxicity of asparaginase to normal progenitors with GSK3 inhibitor: did not increase the toxicity of asparaginase

## CC(C)(C)Cc1[nH]nc2c1[C@](C)(c1ccccc1)C1=C(CC(C)(C)CC1=O)N2 [BRD3731]
CCRF-CEM cells
  sensitization to asparaginase by isoform-selective GSK3 inhibitor: only modest effects
HCT-15 cells
  sensitization to asparaginase: had little effect
SW-480 cells
  sensitization to asparaginase: had little effect

## CO[C@H]1C[C@@H]2CC[C@@H](C)[C@@](O)(O2)C(=O)C(=O)N2CCCC[C@H]2C(=O)O[C@H]([C@H](C)C[C@@H]2CC[C@@H](OCCO)[C@H](OC)C2)CC(=O)[C@H](C)/C=C(\C)[C@@H](O)[C@@H](OC)C(=O)[C@H](C)C[C@H](C)/C=C/C=C/C=C/1C [RAD001]
CCRF-CEM cells; 8 days
  effect on Wnt-induced sensitization to asparaginase: had no effect

## CC(C)C[C@H](NC(=O)[C@H](Cc1ccccc1)NC(=O)c1cnccn1)B(O)O [bortezomib]
CCRF-CEM cells; 10 nM dose
  single-agent toxicity: lacked single-agent toxicity
CCRF-CEM cells; bortezomib 10 nM, 8 days
  sensitization to asparaginase by proteasome inhibition: phenocopied Wnt-induced sensitization to asparaginase
CCRF-CEM cells; indicated doses, 48 hours (FIG. 10)
  toxicity (viability), dose range: highly toxic at intermediate doses

## CC[C@@]1(c2ccccc2)C2=C(CC(C)(C)CC2=O)Nc2[nH]ncc21 [BRD0705]
[3]
  activity on tumor growth: no activity
CCRF-CEM cells
  sensitization to asparaginase by isoform-selective GSK3 inhibitor: effectively sensitizes
HCT-15 cells
  sensitization to asparaginase: sensitized
[4]; FIG. 4D, Kaplan-Meier
  difference in survival between vehicle and monotherapy groups (log-rank): not significant
[4]; asparaginase 1,000 U/kg i.v. single dose, BRD0705 15 mg/kg oral gavage every 12 hours for 12 days
  efficacy against xenograft (survival): highly resistant
SW-480 cells
  sensitization to asparaginase: sensitized
Apc-deficient organoids
  toxicity to organoids (viable organoid count): little toxicity

B1: Wnt3A: Wnt ligand, recombinant protein (R&D systems) (protein, UniProt P56704 19-352, looked up)
Protein Wnt-3a: SYPIWWSLAVGPQYSSLGSQPILCASIPGLVPKQLRFCRNYVEIMPSVAEGIKIGIQECQHQFRGRRWNCTTVHDSLAIFGPVLDKATRESAFVHAIASAGVAFAVTRSCAEGTAAICGCSSRHQGSPGKGWKWGGCSEDIEFGGMVSREFADARENRPDARSAMNRHNNEAGRQAIASHMHLKCKCHGLSGSCEVKTCWWSQPDFRAIGDFLKDKYDSASEMVVEKHRESRGWVETLRPRYTYFKVPTERDLVYYEASPNFCEPNPETGSFGTRDRTCNVSSHGIDGCDLLCCGRGHNARAERRREKCRCVFHWCCYVSCQECTRVYDVHTCK
CCRF-CEM cells; 100 ng/ml Wnt3A, 8 days
  sensitization to asparaginase by Wnt ligand: phenocopied
